Laboratory results: patent US12570609B2, “Tricyclic sulfones as ROR gamma modulators” (BRISTOL-MYERS SQUIBB COMPANY, priority 2020, dated 2026)

Tests used:
Assay type in all cases: cell-based
RORγ = molecular target: T1, RORγ (Homo sapiens, UniProt P51449); assay: RORγ Gal4 reporter assay (Gal4-luciferase, Jurkat cells); details: Jurkat cells over-expressing RORγ, overnight incubation
T1 construct: Jurkat pEx/Gal/hRORγCLBD/HYG pG5luc/blast; expressed in transfected cells
T1 sequence (P51449 269-508 limits assumed): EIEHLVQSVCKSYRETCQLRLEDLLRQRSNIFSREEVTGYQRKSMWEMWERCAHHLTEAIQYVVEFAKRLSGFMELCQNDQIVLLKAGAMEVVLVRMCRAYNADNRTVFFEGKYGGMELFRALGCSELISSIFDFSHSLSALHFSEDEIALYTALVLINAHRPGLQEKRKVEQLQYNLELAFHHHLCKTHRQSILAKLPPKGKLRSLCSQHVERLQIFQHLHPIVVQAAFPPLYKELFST
Description: General RORγ Gal4 Reporter Assay
Inverse agonist activity of potential ligands to RORγ was measured by inhibition of luminescence in a Gal4-luciferase reporter assay in Jurkat cells.
The following day, cells were lysed with 10 μL of Steady-Glo Luciferase Assay System (Promega Cat. No. EZ550), and analyzed immediately. IC50 values were determined.

IL17A = assay: Human whole blood assay (IL17A content, AlphaLISA); details: compared with Compound A
Description: The compounds were diluted in dimethyl sulfoxide (DMSO) and were transferred to individual wells of a Matrix Technologies clear, V-bottom 384-well plate using the ECHO acoustic liquid handling technology (60 nL per well). Human whole blood samples (30 μL) were added to each well using a CyBio FeliX liquid handling instrument and the plate was shaken on a plate shaker for 3 min, incubating at 37° C. for 1 h. Wells were then treated with CD3+CD28 with a final concentration of 1 μg/mL, 30 μL per well in an AIM-V medium, the plate was shaken on a plate shaker for 3 min before incubating the reaction mixtures at 37° C. for 20 h. Plasma was liberated from each sample by centrifugation (450 g, 5 min, ambient temperature).

[1] = molecular target: T2, human sodium channel gene SCN5A ion channel (Homo sapiens, UniProt Q14524); assay: Patch clamp assay for sodium channel recording; details: HEK 293 cells expressing SCN5A
T2 construct: expressed in transfected cells
T2 sequence (Q14524 whole entry): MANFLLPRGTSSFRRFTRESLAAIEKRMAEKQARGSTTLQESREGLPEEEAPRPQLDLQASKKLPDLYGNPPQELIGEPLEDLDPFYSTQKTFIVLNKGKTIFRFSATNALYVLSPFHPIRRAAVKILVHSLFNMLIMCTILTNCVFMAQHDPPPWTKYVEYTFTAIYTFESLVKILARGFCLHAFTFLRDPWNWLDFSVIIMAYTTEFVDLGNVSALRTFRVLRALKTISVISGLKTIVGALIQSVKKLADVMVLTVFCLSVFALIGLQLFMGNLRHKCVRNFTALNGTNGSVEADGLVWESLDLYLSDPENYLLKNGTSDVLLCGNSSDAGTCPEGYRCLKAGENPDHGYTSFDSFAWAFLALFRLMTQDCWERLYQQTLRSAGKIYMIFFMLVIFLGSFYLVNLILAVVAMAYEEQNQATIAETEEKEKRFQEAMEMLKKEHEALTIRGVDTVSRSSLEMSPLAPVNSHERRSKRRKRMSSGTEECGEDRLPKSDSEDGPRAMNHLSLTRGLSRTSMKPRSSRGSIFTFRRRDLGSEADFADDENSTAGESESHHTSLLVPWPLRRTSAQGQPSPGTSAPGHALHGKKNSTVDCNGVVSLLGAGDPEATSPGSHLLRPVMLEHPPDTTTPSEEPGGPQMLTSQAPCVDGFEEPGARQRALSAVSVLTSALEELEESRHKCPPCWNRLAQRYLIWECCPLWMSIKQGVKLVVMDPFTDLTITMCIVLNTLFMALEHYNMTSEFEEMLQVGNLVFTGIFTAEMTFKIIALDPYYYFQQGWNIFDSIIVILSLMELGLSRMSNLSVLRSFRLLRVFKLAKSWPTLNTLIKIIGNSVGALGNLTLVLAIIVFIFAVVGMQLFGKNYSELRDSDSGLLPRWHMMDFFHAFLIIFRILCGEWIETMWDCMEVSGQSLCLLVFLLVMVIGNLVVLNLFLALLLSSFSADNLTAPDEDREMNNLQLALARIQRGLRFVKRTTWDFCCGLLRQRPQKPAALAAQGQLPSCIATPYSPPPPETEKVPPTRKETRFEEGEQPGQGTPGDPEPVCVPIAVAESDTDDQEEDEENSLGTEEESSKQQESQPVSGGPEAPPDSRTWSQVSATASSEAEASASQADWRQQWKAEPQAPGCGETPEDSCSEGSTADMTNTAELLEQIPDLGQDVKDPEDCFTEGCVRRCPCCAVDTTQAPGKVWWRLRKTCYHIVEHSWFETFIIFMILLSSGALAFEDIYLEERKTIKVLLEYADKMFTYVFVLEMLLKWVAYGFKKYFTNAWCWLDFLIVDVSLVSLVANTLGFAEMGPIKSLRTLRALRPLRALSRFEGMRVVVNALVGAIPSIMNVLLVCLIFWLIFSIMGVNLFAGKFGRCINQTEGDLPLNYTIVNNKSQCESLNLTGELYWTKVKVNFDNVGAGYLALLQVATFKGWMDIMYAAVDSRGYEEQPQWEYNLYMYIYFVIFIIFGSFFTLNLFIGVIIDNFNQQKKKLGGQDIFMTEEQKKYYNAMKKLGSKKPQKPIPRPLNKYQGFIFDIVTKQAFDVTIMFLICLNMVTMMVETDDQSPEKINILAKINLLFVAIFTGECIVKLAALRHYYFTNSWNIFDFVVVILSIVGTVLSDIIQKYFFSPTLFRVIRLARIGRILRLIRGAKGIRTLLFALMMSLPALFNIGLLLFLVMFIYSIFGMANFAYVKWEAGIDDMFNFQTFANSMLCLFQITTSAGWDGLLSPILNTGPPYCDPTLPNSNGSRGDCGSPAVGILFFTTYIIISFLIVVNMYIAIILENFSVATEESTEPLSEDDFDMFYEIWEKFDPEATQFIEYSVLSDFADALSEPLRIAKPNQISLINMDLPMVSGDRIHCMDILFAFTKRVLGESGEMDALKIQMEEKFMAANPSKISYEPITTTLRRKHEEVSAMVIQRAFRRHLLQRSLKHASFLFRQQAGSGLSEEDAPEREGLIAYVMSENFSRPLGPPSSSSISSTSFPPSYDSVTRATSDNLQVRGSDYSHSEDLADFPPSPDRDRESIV
Description: All results are reported as mean±SEM. DMSO was used as a vehicle, with the final concentration of DMSO not exceeding 0.1%.
Membrane current recordings were made with a Multiclamp 700 series integrating patch-clamp amplifier (Axon Instruments, Foster City, California) using the whole-cell variant of the conventional patch-clamp technique. Cells expressing sodium SCN5A ion channels were placed in a plexiglass bath chamber, mounted on the stage of an inverted microscope, and perfused continuously with bath solution.
The sodium current bath solution, contained (in mM): 140 NaCl, 4 KCl, 1.8 CaCl2, 1 MgCl2, 10 glucose, 10 HEPES (pH 7.4, NaOH). […]
For determining steady state inhibition, sodium currents were elicited every 5 seconds (0.2 Hz) using the following voltage protocol. […] The peak sodium current in response to the depolarizing step to −20 mV was monitored in the control buffer and after application of test article until a new steady state in the presence of the test article was achieved. […] Rate dependent inhibition was calculated by comparing the average of the last 3 sweeps of 30 voltage sweeps in presence of test article to the average of the last 3 sweeps of 30 voltage sweeps under control conditions at each frequency tested.
Currents were sampled at rates at least 2 times the low pass filter rate. […] All currents were recorded at room temperature ˜25° C.

IC50 (RORγ) [nM] | Compound | potency in the human whole blood assay relative to Compound A (IL17A) | activity in the Na channel assay (in words) [1] | IC50 ([1]; whole-cell patch clamp, read-out: Na Channel) [nM]
8.4 | O=C(N[C@@H]1CC[C@@]2(S(=O)(=O)c3ccc(F)cc3)c3ccc(C(F)(C(F)(F)F)C(F)(F)F)nc3CC[C@@H]12)C1CCS(=O)(=O)CC1 [Example 3] | – | – | –
7.9 | O=C(O)C1CC2(C1)CC(C(=O)N[C@@H]1CC[C@@]3(S(=O)(=O)c4ccc(F)cc4)c4ccc(C(F)(C(F)(F)F)C(F)(F)F)nc4CC[C@@H]13)C2 (stereo partly shown) [Example 6] | – | – | –
– | C[C@@](O)(CS(C)(=O)=O)C(=O)N[C@@H]1CC[C@@]2(S(=O)(=O)c3ccc(F)cc3)c3ccc(C(F)(C(F)(F)F)C(F)(F)F)nc3CC[C@@H]12 [Example 1, (S)—N-((6aS,7R,9aS)-9a-((4-fluorophenyl)sulfonyl)-3-(perfluoropropan-2-yl)-6,6a,7,8,9,9a-hexahydro-5H-cyclopenta[f]quinolin-7-yl)-2-hydroxy-2-methyl-3-(methylsulfonyl)propanamide] | twice as potent | essentially inactive | > 30000
6 | CC(C)(O)CC(=O)N[C@@H]1CC[C@@]2(S(=O)(=O)c3ccc(F)cc3)c3ccc(C(F)(C(F)(F)F)C(F)(F)F)nc3CC[C@@H]12 [Example 2] | – | – | –
3.9 | CC(C)(O)C(=O)N[C@@H]1CC[C@@]2(S(=O)(=O)c3ccc(F)cc3)c3ccc(C(F)(C(F)(F)F)C(F)(F)F)nc3CC[C@@H]12 [Example 4] | – | – | –
